According to patent US20250026769A1, “PAPD5 INHIBITORS AND METHODS OF USE THEREOF” (The Children's Medical Center Corporation, priority 2021, published 2025):
Read-outs that look alike come from different tables or passages of the source.

What was measured:
[1] = system: hepatitis B surface antigen (HBSAg) from HepG2.2.15 cells, a hepatitis B virus-expressing cell line; assay: HBsAg ELISA in supernatant of HepG2.2.15 cells; type: cell-based; conditions: HepG2.2.15, 96 h
Protocol: HepG2.2.15 cells, a hepatitis B virus-expressing cell line (Sells, M. A. et al., PNAS, 1987), were plated at 50,000 cells/well in DMEM/F12 media (Gibco) with 10% fetal bovine serum (Omega Scientific) in a 24-well or 96-well plate (Corning), in 2-3 replicates for each test compound/concentration plus controls, and incubated in a humidified 5% CO2 chamber at 37° C. The next day, media was aspirated, cells were washed once with phosphate buffered saline, pH7.4 (Gibco), and 1 mL DMEM/12 media was replaced. Test compounds were added in 3-fold dilutions from up to 100 μM down to 333 pM, with vehicle (dimethylsulfoxide (Sigma)) as a control. After four days of culture in a humidified 5% CO2 chamber at 37° C., plates were spun down in a centrifuge at 300 g for 10 minutes at room temperature. Supernatant from each well was collected and either frozen at −20° C. or used directly for quantitation of hepatitis B surface antigen (HBSAg) in an enzyme-linked immunosorbent assay (ELISA). The supernatant was tested using the HBSAg ELISA kit (Abnova Cat. No KA0286) per the manufacturer's instructions. Results of replicates were averaged and nonlinear curve fitting was used to determine the half maximal inhibitory concentration (IC50) for each test compound.

[2] = system: TERC 3′ end processing in DC patient iPSCs; assay: TERC 3′ end processing by RACE in DC patient / PARN-mutant iPSCs; type: cell-based, human; conditions: for minimal effective concentration: Homo sapiens, iPSC, patient iPSCs, concentration class at which activity is seen, read-out: iPSC-based RACE activity
Protocol: (§1) Compound 266A had activity ˜2-logs higher in the in vitro RNA oligoadenylation assay compared to the parental compound cmpd. 1, approximating the activity of RG7834 (FIG. 7). […] 1. Compounds 295A and 296A had activity 2-3 logs higher in DC patient iPSCs, showing TERC maturation at 1 nM, similar to RG7834 (FIG. 6). […] Referring to Table 1D, “+” refers to activity at 1 μM, “++” refers to activity above 1 nM and below 1 μM, and “+++” refers to activity at <1 nM, “ND” refers to not determined.

[3] = molecular target: T1, rPAPD5 (Homo sapiens, UniProt Q8NDF8); assay: differential scanning fluorimetry (DSF) binding and stabilization of rPAPD5; conditions: for ΔTm at 100 µM: 100 μM test compound, read-out: ΔTm at 100 μM; for ΔTm at 1 µM: 1 μM test compound (Table 2a), read-out: ΔTm at 1 μM
T1 construct: made in house
T1 sequence (Q8NDF8 68-698 isoform Q8NDF8-5 limits assumed): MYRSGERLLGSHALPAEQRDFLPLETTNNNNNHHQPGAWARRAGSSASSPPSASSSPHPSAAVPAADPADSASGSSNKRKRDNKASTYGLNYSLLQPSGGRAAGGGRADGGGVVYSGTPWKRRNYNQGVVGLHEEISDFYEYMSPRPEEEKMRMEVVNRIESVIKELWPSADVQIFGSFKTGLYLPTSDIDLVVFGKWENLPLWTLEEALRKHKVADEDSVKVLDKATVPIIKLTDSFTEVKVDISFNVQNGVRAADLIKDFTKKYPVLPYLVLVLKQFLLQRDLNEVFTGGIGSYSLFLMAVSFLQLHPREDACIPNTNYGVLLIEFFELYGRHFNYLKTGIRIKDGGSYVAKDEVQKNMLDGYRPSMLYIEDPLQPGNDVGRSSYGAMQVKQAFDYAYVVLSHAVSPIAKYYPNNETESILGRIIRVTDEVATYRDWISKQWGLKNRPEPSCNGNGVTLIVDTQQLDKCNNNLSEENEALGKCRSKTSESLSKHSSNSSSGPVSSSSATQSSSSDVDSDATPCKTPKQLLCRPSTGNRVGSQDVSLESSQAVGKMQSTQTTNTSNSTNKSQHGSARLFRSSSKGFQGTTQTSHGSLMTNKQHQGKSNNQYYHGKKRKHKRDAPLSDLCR
In short: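 Compound-induced shifts in rPAPD5 melting temperature were determined by thermal shift (DSF). Protein at […] was mixed with a non-extendable ATP analog […] in Tris-HCl (25 mM), MgCl2 (5 mM) and KCl (50 mM), with SYPRO orange at 1:5000. Curves were averages of three measurements analyzed with Thermal Shift software, and ΔTm was referenced to DMSO.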

[4] = system: telomere length in DC patient iPSCs; assay: telomere length / telomere elongation in DC patient iPSCs; type: cell-based, human; conditions: for concentration at which telomere elongation was observed: DC patient iPSCs, after 3-4 weeks of cell culture; for minimal effective concentration: Homo sapiens, iPSC, patient iPSCs, concentration class at which activity is seen, read-out: iPSC-based Telomere length
Protocol: as §1

[5] = 10 μM test compound (Table 2a), read-out: ΔTm at 10 μM
[6] = 10 μM test compound, shift vs DMSO control, read-out: ΔTm (Table 2, starred: the compound was tested at 10 μM)

Compound	IC50 [1] [nM]	activity in DC patient iPSCs (TERC maturation) relative to cmpd. 1 ([2]; DC patient iPSCs, higher / more potent than cmpd. 1)	ΔTm at 100 µM ([3]; shift vs DMSO control) [°C]	concentration at which telomere elongation was observed [4] [nM]	concentration showing maturation of TERC 3′ end processing by RACE ([2]; DC patient iPSCs) [nM]	minimal effective concentration [2] [µM]	ΔTm at 1 µM [3] [°C]	ΔTm at 10 µM [3, 5] [°C]	ΔTm at 10 µM [3, 6] [°C]	minimal effective concentration [4] [µM]
O=C(O)c1cc(Cl)ccc1Nc1c(S(=O)(=O)N2CCOCC2)cnc2ccc(Cl)cc12 [Compound 266A, 5-chloro-2-[(6-chloro-3-morpholinosulfonyl-4-quinolyl)amino]benzoic acid]	102	1-2 logs	> 5	10	–	–	–	–	–	–
Cl.O=C(O)c1cc(Cl)ccc1Nc1c(-c2ncco2)cnc2ccc(Cl)cc12 [Compound 295A, 5-chloro-2-[(6-chloro-3-oxazol-2-yl-4-quinolyl)amino]benzoic acid]	318	–	> 5	1	1	–	–	–	–	–
COc1ccc(Nc2c(C3CCOCC3)cnc3ccc(Cl)cc23)c(C(=O)O)c1 [Compound 307A, 2-[(6-chloro-3-tetrahydropyran-4-yl-4-quinolyl)amino]-5-methoxy-benzoic acid]	1320	–	> 5	–	–	–	–	–	–	–
O=C(O)c1cc(Cl)ccc1Nc1c(C2CCSCC2)cnc2ccc(Cl)cc12 [Compound 341A, 5-chloro-2-[(6-chloro-3-tetrahydrothiopyran-4-yl-4-quinolyl)amino]benzoic acid]	84	–	–	–	–	0.001 to 1	> 5	> 5	> 5	–
O=C(O)c1cc(Cl)ccc1Nc1c(C2=CCSCC2)cnc2ccc(Cl)cc12 [Compound 342A, 5-chloro-2-[[6-chloro-3-(3,6-dihydro-2H-thiopyran-4-yl)-4-quinolyl]amino]benzoic acid]	821	–	–	–	–	< 0.001	> 5	> 5	> 5	< 0.001
O=C(O)c1cc(Cl)ccc1Nc1c(C2CCC(F)(F)CC2)cnc2ccc(Cl)cc12 [Compound 343A, 5-chloro-2-[[6-chloro-3-(4,4-difluorocyclohexyl)-4-quinolyl]amino]benzoic acid]	86	–	–	–	–	< 0.001	> 5	> 5	> 5	< 0.001
O=C(O)c1cc(Cl)ccc1Nc1c(N2CCSCC2)cnc2ccc(Cl)cc12 [Compound 346A, 5-chloro-2-[(6-chloro-3-thiomorpholino-4-quinolyl)amino]benzoic acid]	88	–	> 5	–	–	0.001 to 1	1 to 5	> 5	–	–
O=C(O)c1cc(Cl)ccc1Nc1c(-c2cn[nH]c2)cnc2ccc(Cl)cc12 [Compound 354A, 5-chloro-2-[[6-chloro-3-(1H-pyrazol-4-yl)-4-quinolyl]amino]benzoic acid]	3340	–	–	–	–	1	1 to 5	> 5	> 5	–
CN1CC=C(c2cnc3ccc(Cl)cc3c2Nc2ccc(Cl)cc2C(=O)O)CC1 [Compound 367A, 5-chloro-2-[[6-chloro-3-(1-methyl-3,6-dihydro-2H-pyridin-4-yl)-4-quinolyl]amino]benzoic acid]	902	–	> 5	–	–	1	> 5	> 5	–	–
O=C(O)c1cc(Cl)ccc1Nc1c(N2CCC(=NO)CC2)cnc2ccc(Cl)cc12 [Compound 376A, 5-chloro-2-[[6-chloro-3-(4-hydroxyimino-1-piperidyl)-4-quinolyl]amino]benzoic acid]	101	–	> 5	–	–	1	> 5	> 5	–	–
O=C1CCN(c2cnc3ccc(Cl)cc3c2Nc2ccc(Cl)cc2C(=O)O)CC1 [Compound 395A, 5-chloro-2-[[6-chloro-3-(4-oxo-1-piperidyl)-4-quinolyl]amino]benzoic acid]	–	–	> 5	–	–	1	> 5	> 5	–	< 0.001
O=C(O)c1cc(Cl)ccc1Nc1c(N2CCC(O)CC2)cnc2ccc(Cl)cc12 [Compound 399A, 5-chloro-2-[[6-chloro-3-(4-hydroxy-1-piperidyl)-4-quinolyl]amino]benzoic acid]	–	–	> 5	–	–	< 0.001	> 5	> 5	–	< 0.001
Cc1cc2ncc(S(=O)(=O)N3CCSCC3)c(Nc3ccc(Cl)cc3C(=O)O)c2cc1Cl [Compound 411A, 5-chloro-2-[(6-chloro-7-methyl-3-thiomorpholinosulfonyl-4-quinolyl)amino]benzoic acid]	–	–	–	–	–	< 0.001	> 5	> 5	> 5	< 0.001
O=C(O)c1cc(Cl)ccc1Nc1c(S(=O)(=O)N2CCSCC2)cnc2cc(C(F)(F)F)c(Cl)cc12 [Compound 413A, 5-chloro-2-[[6-chloro-3-thiomorpholinosulfonyl-7-(trifluoromethyl)-4-quinolyl]amino]benzoic acid]	–	–	–	–	–	< 0.001	1 to 5	> 5	> 5	< 0.001
O=C(O)c1cc(Cl)ccc1Nc1c(S(=O)(=O)N2CCSCC2)cnc2cc(Cl)c(Cl)cc12 [Compound 414A, 5-chloro-2-[(6,7-dichloro-3-thiomorpholinosulfonyl-4-quinolyl)amino]benzoic acid]	–	–	–	–	–	< 0.001	> 5	> 5	> 5	< 0.001
O=C(O)c1cc(Cl)ccc1Nc1c(S(=O)(=O)N2CCSCC2)cnc2cc(Br)c(Cl)cc12 [Compound 416A, 2-[(7-bromo-6-chloro-3-thiomorpholinosulfonyl-4-quinolyl)amino]-5-chloro-benzoic acid]	–	–	–	–	–	< 0.001	> 5	> 5	> 5	< 0.001
O=C(O)c1cc(Cl)ccc1Nc1c(S(=O)(=O)N2CCSCC2)cnc2c(C(F)(F)F)cc(Cl)cc12 [Compound 419A, 5-chloro-2-[[6-chloro-3-thiomorpholinosulfonyl-8-(trifluoromethyl)-4-quinolyl]amino]benzoic acid]	–	–	< 1	–	–	< 0.001	> 5	> 5	–	< 0.001
O=C(O)c1cc(Cl)ccc1Nc1c(S(=O)(=O)N2CCSCC2)cnc2c(Br)cc(Cl)cc12 [Compound 422A, 2-[(8-bromo-6-chloro-3-thiomorpholinosulfonyl-4-quinolyl)amino]-5-chloro-benzoic acid]	–	–	–	–	–	< 0.001	> 5	> 5	> 5	< 0.001
Cc1nc2ccc(Cl)cc2c(Nc2ccc(Cl)cc2C(=O)O)c1S(=O)(=O)N1CCSCC1 [Compound 423A, 5-chloro-2-[(6-chloro-2-methyl-3-thiomorpholinosulfonyl-4-quinolyl)amino]benzoic acid]	–	–	> 5	–	–	< 0.001	> 5	> 5	–	< 0.001
